Test results published in US11059795B2, “Androgen receptor modulators and methods for their use” (ESSA Pharma, Inc., priority 2018, dated 2021).

Tests used:
androgen receptor (AR) = molecular target: T1, androgen receptor (AR) (Homo sapiens, UniProt P10275, T878A); experiment: Androgen-induced PSA (6.1 kb)-luciferase reporter assay in LNCaP cells; assay type: cell-based; details: LNCaP cells transfected with PSA (6.1 kb)-luciferase reporter, R1881 1 nM, 24 h; read-out: PSA-Luc IC50 Range
T1 construct: LNCaP cells were transiently transfected with the PSA (6.1 kb)-luciferase reporter for 24 h; endogenous in cells; host or cells: LNCaP
T1 sequence (P10275 1-920 T878A): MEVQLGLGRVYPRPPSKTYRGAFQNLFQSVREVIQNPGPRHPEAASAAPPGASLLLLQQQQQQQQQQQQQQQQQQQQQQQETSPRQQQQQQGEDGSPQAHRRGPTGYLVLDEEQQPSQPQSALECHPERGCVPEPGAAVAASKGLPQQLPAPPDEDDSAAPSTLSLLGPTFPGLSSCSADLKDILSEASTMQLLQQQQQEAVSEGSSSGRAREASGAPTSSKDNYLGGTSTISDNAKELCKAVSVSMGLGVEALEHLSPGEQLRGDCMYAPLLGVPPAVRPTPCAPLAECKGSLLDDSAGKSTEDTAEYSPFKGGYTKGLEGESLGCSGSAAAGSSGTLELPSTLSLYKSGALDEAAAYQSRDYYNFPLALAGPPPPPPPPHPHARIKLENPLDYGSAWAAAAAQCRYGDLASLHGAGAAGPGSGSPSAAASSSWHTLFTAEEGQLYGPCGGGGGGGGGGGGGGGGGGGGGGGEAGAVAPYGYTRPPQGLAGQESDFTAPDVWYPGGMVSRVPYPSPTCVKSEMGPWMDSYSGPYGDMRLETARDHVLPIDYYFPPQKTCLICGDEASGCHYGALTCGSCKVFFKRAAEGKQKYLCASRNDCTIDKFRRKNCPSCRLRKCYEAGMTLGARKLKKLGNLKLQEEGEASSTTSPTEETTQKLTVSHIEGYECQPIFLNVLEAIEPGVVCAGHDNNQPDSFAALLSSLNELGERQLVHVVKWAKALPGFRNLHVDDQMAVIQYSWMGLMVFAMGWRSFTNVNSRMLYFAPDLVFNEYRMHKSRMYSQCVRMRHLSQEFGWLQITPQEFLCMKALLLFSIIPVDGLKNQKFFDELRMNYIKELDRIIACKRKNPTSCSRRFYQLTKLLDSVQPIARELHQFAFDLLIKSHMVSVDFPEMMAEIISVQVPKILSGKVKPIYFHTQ
How it was run: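 LNCaP cells carrying a PSA (6.1 kb) promoter-luciferase reporter with AREs; androgen-induced firefly luciferase read from lysates for 10 s. RLU normalized to protein content; IC50 calculated from the normalized data.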

[1] = Microsomal stability assay, mouse liver microsomes; assay type: in vitro ADME; details: mouse, liver microsomes, pH 7.4, mouse liver microsomes, 1 μM compound, 0.5 mg/mL protein, 37° C.; read-out: MLM +30/− NADPH: Clint (μL/min/mg protein)
How it was run: (§1)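 Compound at 1 μM was incubated at 37° C with 0.5 mg/mL liver microsomes and 1 mM NADPH and/or 1 mM UDPGA (with alamethicin) in 100 mM potassium phosphate pH 7.4, 3 mM MgCl2. Samples were taken at 0, 15, 30 and 60 min and measured by LC/MS/MS. t½ came from compound loss relative to 0 min, and Clint was scaled with 45 mg microsomal protein/g liver.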

[2] = Microsomal stability assay, human liver microsomes; assay type: in vitro ADME; details: pH 7.4, 1 μM compound, 0.5 mg/mL protein, 37° C., read-out: HLM +/− NADPH: Clint (μL/min/mg protein)
How it was run: as §1

[3] = Hepatocyte stability assay, mouse hepatocytes; assay type: in vitro ADME; details: mouse, cryopreserved hepatocytes, 1 μM compound, 0.5 million cells/mL, 37° C., read-out: MH +/− NADPH: Clint (μL/min/million cells)
How it was run: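 Cryopreserved rat, human or mouse hepatocytes at 0.5 million cells/mL in DMEM with 1 μM compound, 37° C, sampled at 0, 60, 120 and 180 min and quenched with acetonitrile/formic acid. Parent loss vs 0-min by LC/MS/MS gave t½, and Clint = 0.693/t½ × mL incubation/million cells.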

Cc1nc(NS(C)(=O)=O)nc(COc2ccc(C(C)(C)c3cc(Cl)c(OCCCl)c(C#N)c3)cc2)c1C [Compound A123]
IC50 (androgen receptor (AR)): < 500 nM
microsomal CLint at 1 μM [1]: ≥ 48 µL/min/mg
microsomal CLint at 1 μM [2]: < 12 µL/min/mg
hepatocyte CLint at 1 μM [3]: 4 to 18 µL/min/1e6 cells

CC(C)(c1ccc(OCc2ccnc(S(C)(=O)=O)n2)cc1)c1cc(Cl)c(OCCCl)c(C#N)c1 [Compound A124]
IC50 (androgen receptor (AR)): > 2000 nM
microsomal CLint at 1 μM [1]: ≥ 48 µL/min/mg
microsomal CLint at 1 μM [2]: < 12 µL/min/mg
hepatocyte CLint at 1 μM [3]: ≥ 18 µL/min/1e6 cells

CC(C)S(=O)(=O)c1nc(COc2ccc(C(C)(C)c3cc(Cl)c(OCCCl)c(C#N)c3)cc2)co1 [Compound A125]
IC50 (androgen receptor (AR)): < 500 nM
microsomal CLint at 1 μM [1]: ≥ 48 µL/min/mg
microsomal CLint at 1 μM [2]: < 12 µL/min/mg
hepatocyte CLint at 1 μM [3]: ≥ 18 µL/min/1e6 cells

CC(C)(c1ccc(OCc2coc(NS(C)(=O)=O)n2)cc1)c1cc(Cl)c(OCCCl)c(C#N)c1 [Compound A130]
IC50 (androgen receptor (AR)): 500 to 2000 nM
microsomal CLint at 1 μM [1]: < 12 µL/min/mg
microsomal CLint at 1 μM [2]: 12 to 48 µL/min/mg
hepatocyte CLint at 1 μM [3]: < 4 µL/min/1e6 cells

CC(C)S(=O)(=O)Nc1nc(COc2ccc(C(C)(C)c3cc(Cl)c(OCCCl)c(C#N)c3)cc2)co1 [Compound A132]
IC50 (androgen receptor (AR)): 500 to 2000 nM
microsomal CLint at 1 μM [1]: < 12 µL/min/mg
microsomal CLint at 1 μM [2]: < 12 µL/min/mg
hepatocyte CLint at 1 μM [3]: < 4 µL/min/1e6 cells

CC(C)(c1ccc(OCc2cnc(NS(C)(=O)=O)o2)cc1)c1cc(Cl)c(OCCCl)c(C#N)c1 [Compound A133]
IC50 (androgen receptor (AR)): < 500 nM
microsomal CLint at 1 μM [1]: ≥ 48 µL/min/mg
microsomal CLint at 1 μM [2]: ≥ 48 µL/min/mg
hepatocyte CLint at 1 μM [3]: ≥ 18 µL/min/1e6 cells

CC(C)(c1ccc(OCc2csc(NS(C)(=O)=O)n2)cc1)c1cc(Cl)c(OCCCl)c(C#N)c1 [Compound A134, N-(4-((4-(2-(3-chloro-4-(2-chloroethoxy)-5-cyanophenyl)propan-2-yl)phenoxy)methyl)thiazol-2-yl)methanesulfonamide]
IC50 (androgen receptor (AR)): 500 to 2000 nM
microsomal CLint at 1 μM [1]: < 12 µL/min/mg
microsomal CLint at 1 μM [2]: 12 to 48 µL/min/mg
hepatocyte CLint at 1 μM [3]: < 4 µL/min/1e6 cells

CC(C)(c1ccc(OCc2ncc(NS(C)(=O)=O)s2)cc1)c1cc(Cl)c(OCCCl)c(C#N)c1 [Compound A135]
IC50 (androgen receptor (AR)): < 500 nM
microsomal CLint at 1 μM [1]: 12 to 48 µL/min/mg
microsomal CLint at 1 μM [2]: 12 to 48 µL/min/mg
hepatocyte CLint at 1 μM [3]: ≥ 18 µL/min/1e6 cells

CC(C)(c1ccc(OCc2nc(NS(C)(=O)=O)cs2)cc1)c1cc(Cl)c(OCCCl)c(C#N)c1 [Compound A137, N-(2-((4-(2-(3-Chloro-4-(2-chloroethoxy)-5-cyanophenyl)propan-2-yl)phenoxy)methyl)thiazol-4-yl)methanesulfonamide]
IC50 (androgen receptor (AR)): < 500 nM
microsomal CLint at 1 μM [1]: 12 to 48 µL/min/mg
microsomal CLint at 1 μM [2]: < 12 µL/min/mg
hepatocyte CLint at 1 μM [3]: < 4 µL/min/1e6 cells

CC(=O)Nc1nc(COc2ccc(C(C)(C)c3cc(Cl)c(OCCCl)c(C#N)c3)cc2)co1 [Compound A140]
IC50 (androgen receptor (AR)): < 500 nM
microsomal CLint at 1 μM [1]: ≥ 48 µL/min/mg
microsomal CLint at 1 μM [2]: ≥ 48 µL/min/mg
hepatocyte CLint at 1 μM [3]: ≥ 18 µL/min/1e6 cells

CC(C)(c1ccc(OCc2ncoc2S(C)(=O)=O)cc1)c1cc(Cl)c(OCCCl)c(C#N)c1 [Compound A141]
IC50 (androgen receptor (AR)): < 500 nM
microsomal CLint at 1 μM [1]: ≥ 48 µL/min/mg
microsomal CLint at 1 μM [2]: < 12 µL/min/mg
hepatocyte CLint at 1 μM [3]: ≥ 18 µL/min/1e6 cells

CC(C)S(=O)(=O)c1ncc(COc2ccc(C(C)(C)c3cc(Cl)c(OCCCl)c(C#N)c3)cc2)o1 [Compound A142]
IC50 (androgen receptor (AR)): < 500 nM
microsomal CLint at 1 μM [1]: ≥ 48 µL/min/mg
microsomal CLint at 1 μM [2]: 12 to 48 µL/min/mg
hepatocyte CLint at 1 μM [3]: ≥ 18 µL/min/1e6 cells

CC(C)(c1ccc(OCC2COC(NS(C)(=O)=O)=N2)cc1)c1ccc(OCCCl)c(C#N)c1 (centres unmarked) [Compound A143]
IC50 (androgen receptor (AR)): > 2000 nM
microsomal CLint at 1 μM [1]: < 12 µL/min/mg
microsomal CLint at 1 μM [2]: < 12 µL/min/mg
hepatocyte CLint at 1 μM [3]: < 4 µL/min/1e6 cells

CC(=O)Nc1nccc(C(C)Oc2ccc(C(C)(C)c3cc(Cl)c(OCCCl)c(C#N)c3)cc2)n1 (centres unmarked) [Compound A145]
IC50 (androgen receptor (AR)): 500 to 2000 nM
microsomal CLint at 1 μM [1]: ≥ 48 µL/min/mg
microsomal CLint at 1 μM [2]: ≥ 48 µL/min/mg
hepatocyte CLint at 1 μM [3]: ≥ 18 µL/min/1e6 cells

CC(Oc1ccc(C(C)(C)c2cc(Cl)c(OCCCl)c(C#N)c2)cc1)c1ccnc(S(C)(=O)=O)n1 (centres unmarked) [Compound A147]
IC50 (androgen receptor (AR)): > 2000 nM
microsomal CLint at 1 μM [1]: ≥ 48 µL/min/mg
microsomal CLint at 1 μM [2]: 12 to 48 µL/min/mg
hepatocyte CLint at 1 μM [3]: ≥ 18 µL/min/1e6 cells

CC(C)(c1ccc(OCc2cncnc2NS(C)(=O)=O)cc1)c1cc(Cl)c(OCCCl)c(C#N)c1 [Compound A148]
IC50 (androgen receptor (AR)): 500 to 2000 nM
microsomal CLint at 1 μM [1]: < 12 µL/min/mg
microsomal CLint at 1 μM [2]: ≥ 48 µL/min/mg
hepatocyte CLint at 1 μM [3]: < 4 µL/min/1e6 cells

CC(C)(c1ccc(OCc2cnc(S(C)(=O)=O)s2)cc1)c1cc(Cl)c(OCCCl)c(C#N)c1 [Compound A149]
IC50 (androgen receptor (AR)): < 500 nM
microsomal CLint at 1 μM [1]: < 12 µL/min/mg
microsomal CLint at 1 μM [2]: < 12 µL/min/mg
hepatocyte CLint at 1 μM [3]: ≥ 18 µL/min/1e6 cells

CC(C)(c1ccc(OCc2ncc(S(C)(=O)=O)o2)cc1)c1cc(Cl)c(OCCCl)c(C#N)c1 [Compound A153]
IC50 (androgen receptor (AR)): 500 to 2000 nM
microsomal CLint at 1 μM [1]: 12 to 48 µL/min/mg
microsomal CLint at 1 μM [2]: < 12 µL/min/mg
hepatocyte CLint at 1 μM [3]: 4 to 18 µL/min/1e6 cells

CC(C)(c1ccc(OCc2coc(N)n2)cc1)c1cc(Cl)c(OCCCl)c(C#N)c1 [Compound A155]
IC50 (androgen receptor (AR)): < 500 nM
microsomal CLint at 1 μM [1]: ≥ 48 µL/min/mg
microsomal CLint at 1 μM [2]: 12 to 48 µL/min/mg
hepatocyte CLint at 1 μM [3]: 4 to 18 µL/min/1e6 cells

COC(=O)Nc1nc(COc2ccc(C(C)(C)c3cc(Cl)c(OCCCl)c(C#N)c3)cc2)co1 [Compound A156]
IC50 (androgen receptor (AR)): < 500 nM
microsomal CLint at 1 μM [1]: 12 to 48 µL/min/mg
microsomal CLint at 1 μM [2]: 12 to 48 µL/min/mg
hepatocyte CLint at 1 μM [3]: ≥ 18 µL/min/1e6 cells

Cc1nc(N)cc(COc2ccc(C(C)(C)c3cc(Cl)c(OCCCl)c(C#N)c3)cc2)n1 [Compound A162]
IC50 (androgen receptor (AR)): < 500 nM
microsomal CLint at 1 μM [1]: ≥ 48 µL/min/mg
microsomal CLint at 1 μM [2]: 12 to 48 µL/min/mg
hepatocyte CLint at 1 μM [3]: ≥ 18 µL/min/1e6 cells

CC(C)(c1ccc(OCc2cc(CN)nc(NS(C)(=O)=O)n2)cc1)c1cc(Cl)c(OCCCl)c(C#N)c1 [Compound A164, N-(4-(aminomethyl)-6-((4-(2-(3-chloro-4-(2-chloroethoxy)-5-cyanophenyl)propan-2-yl)phenoxy)methyl)pyrimidin-2-yl)methanesulfonamide]
IC50 (androgen receptor (AR)): 500 to 2000 nM
microsomal CLint at 1 μM [1]: < 12 µL/min/mg
microsomal CLint at 1 μM [2]: < 12 µL/min/mg
hepatocyte CLint at 1 μM [3]: < 4 µL/min/1e6 cells

CC(C)(c1ccc(OCc2ccc(S(C)(=O)=O)o2)cc1)c1cc(Cl)c(OCCCl)c(C#N)c1 [Compound A168, 3-chloro-2-(2-chloroethoxy)-5-(2-(4-((5-(methylsulfonyl)furan-2-yl)methoxy)phenyl)propan-2-yl)benzonitrile]
IC50 (androgen receptor (AR)): < 500 nM
microsomal CLint at 1 μM [1]: < 12 µL/min/mg
microsomal CLint at 1 μM [2]: < 12 µL/min/mg
hepatocyte CLint at 1 μM [3]: 4 to 18 µL/min/1e6 cells
